# Legend:
# [1] = biological target: T1, GRK5 (Homo sapiens, UniProt P34947); experiment: Lance Kinase Activity Assay, GRK5; conditions: biochemical Lance kinase activity assay; class symbols A-F; read-out: GRK5 LANCE Assay (IC-50)
# T1 construct: purchased Thermo Scientific
# In short: (§1)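 IC50s from sigmoidal dose-response over 0.0025-10 μM compound, with phosphorylated ULight substrate detected by Eu anti-phospho antibody FRET after EDTA quench.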
# [2] = biological target: T2, GRK2 (Homo sapiens, UniProt P25098); experiment: Lance Kinase Activity Assay, GRK2; conditions: biochemical Lance kinase activity assay; class symbols A-F; read-out: GRK2 LANCE Assay (IC-50)
# T2 construct: purchased Thermo Scientific
# T2 sequence (P25098 1-689): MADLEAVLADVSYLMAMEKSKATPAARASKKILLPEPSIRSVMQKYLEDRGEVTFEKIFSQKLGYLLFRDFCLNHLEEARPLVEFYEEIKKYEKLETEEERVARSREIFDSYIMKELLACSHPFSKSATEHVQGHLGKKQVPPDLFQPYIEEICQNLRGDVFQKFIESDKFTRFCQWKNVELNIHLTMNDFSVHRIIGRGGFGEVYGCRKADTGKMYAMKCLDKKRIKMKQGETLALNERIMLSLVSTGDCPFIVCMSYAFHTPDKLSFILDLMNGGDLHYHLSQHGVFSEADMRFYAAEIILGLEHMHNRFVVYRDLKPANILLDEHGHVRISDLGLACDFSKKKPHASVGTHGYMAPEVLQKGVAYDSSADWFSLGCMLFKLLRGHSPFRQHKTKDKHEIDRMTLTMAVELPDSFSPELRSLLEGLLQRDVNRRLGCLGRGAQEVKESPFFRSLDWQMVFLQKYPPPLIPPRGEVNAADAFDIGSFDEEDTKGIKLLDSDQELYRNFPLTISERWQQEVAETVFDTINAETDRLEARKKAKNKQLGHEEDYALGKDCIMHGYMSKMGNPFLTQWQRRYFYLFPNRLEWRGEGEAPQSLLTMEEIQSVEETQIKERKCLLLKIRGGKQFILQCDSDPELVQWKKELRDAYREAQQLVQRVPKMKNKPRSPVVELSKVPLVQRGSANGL
# In short: as §1
# T1 sequence (P34947 whole entry): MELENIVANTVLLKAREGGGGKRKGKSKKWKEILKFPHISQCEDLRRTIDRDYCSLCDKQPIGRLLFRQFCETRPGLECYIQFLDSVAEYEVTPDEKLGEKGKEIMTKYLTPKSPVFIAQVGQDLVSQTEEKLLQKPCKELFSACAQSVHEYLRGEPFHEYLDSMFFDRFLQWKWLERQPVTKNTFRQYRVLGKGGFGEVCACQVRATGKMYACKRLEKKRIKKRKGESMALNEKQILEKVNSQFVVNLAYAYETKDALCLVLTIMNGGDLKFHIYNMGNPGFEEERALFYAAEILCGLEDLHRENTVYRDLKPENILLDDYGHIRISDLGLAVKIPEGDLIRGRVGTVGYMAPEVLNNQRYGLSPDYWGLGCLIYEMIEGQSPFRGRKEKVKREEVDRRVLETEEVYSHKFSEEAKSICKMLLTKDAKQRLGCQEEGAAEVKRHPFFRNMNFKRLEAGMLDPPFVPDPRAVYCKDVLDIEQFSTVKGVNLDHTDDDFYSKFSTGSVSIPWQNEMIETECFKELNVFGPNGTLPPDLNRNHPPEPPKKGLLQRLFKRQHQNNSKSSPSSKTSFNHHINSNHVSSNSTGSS
Compound,IC50 [1] [nM],IC50 [2] [nM]
"COc1ccc([C@@H](C)NC(=O)/C(C#N)=C/c2c[nH]c3ncc(-c4cccc(NS(C)(=O)=O)c4)cc23)cc1OC [Example 151, (R,E)-2-cyano-N-(1-(3,4-dimethoxyphenyl)ethyl)-3-(5-(3-(methylsulfonamido)phenyl)-1H-pyrrolo[2,3-b]pyridin-3-yl)acrylamide]",≤ 50,> 10000
COc1ccc([C@@H](C)NC(=O)/C=C/c2c[nH]c3ncc(-c4cccc(OCCCN(C)C)c4)cc23)cc1OC [Example 188],≤ 50,500 to 1000
"COc1ccc([C@@H](C)NC(=O)/C=C/c2c[nH]c3nccc(-c4cnn(C)c4C)c23)cc1OC [Example 237, (R,E)-N-(1-(3,4-dimethoxyphenyl)ethyl)-3-(4-(1,5-dimethyl-1H-pyrazol-4-yl)-1H-pyrrolo[2,3-b]pyridin-3-yl)acrylamide]",100 to 500,> 10000
"COc1ccc([C@@H](C)NC(=O)/C(C#N)=C/c2c[nH]c3ncc(-c4ccc(F)c(S(C)(=O)=O)c4)c(C)c23)cc1OC [Example 245, (R,E)-2-cyano-N-(1-(3,4-dimethoxyphenyl)ethyl)-3-(5-(4-fluoro-3-(methylsulfonyl)phenyl)-4-methyl-1H-pyrrolo[2,3-b]pyridin-3-yl)acrylamide]",500 to 1000,> 10000
"COc1ccc([C@@H](C)NC(=O)/C=C/c2c[nH]c3ncc(-c4cccc(S(C)(=N)=O)c4)cc23)cc1OC (stereo partly drawn) [Example 251, (E)-N-((R)-1-(3,4-dimethoxyphenyl)ethyl)-3-(5-(3-(S-methylsulfonimidoyl)phenyl)-1H-pyrrolo[2,3-b]pyridin-3-yl)acrylamide]",≤ 50,500 to 1000
"COc1ccc([C@@H](C)NC(=O)/C(C#N)=C/c2c[nH]c3ncc(-c4cccc(C(=O)N5CCOCC5)c4)cc23)cc1OC [Example 127, (R,E)-2-cyano-N-(1-(3,4-dimethoxyphenyl)ethyl)-3-(5-(3-(morpholine-4-carbonyl)phenyl)-1H-pyrrolo[2,3-b]pyridin-3-yl)acrylamide]",≤ 50,> 10000
"N#C/C(=C\c1c[nH]c2ncccc12)C(=O)NCc1cccc(C(N)=O)c1 [Example 28, (E)-3-((2-cyano-3-(1H-pyrrolo[2,3-b]pyridin-3-yl)acrylamido)methyl)benzamide]",500 to 1000,100 to 500
"COc1ccc([C@@H](C)NC(=O)/C=C/c2c[nH]c3ncc(-c4cc(F)cc(S(C)(=O)=O)c4)cc23)cc1OC [Example 249, (R,E)-N-(1-(3,4-dimethoxyphenyl)ethyl)-3-(5-(3-fluoro-5-(methylsulfonyl)phenyl)-1H-pyrrolo[2,3-b]pyridin-3-yl)acrylamide]",≤ 50,1000 to 10000
"N#C/C(=C\c1c[nH]c2ncccc12)C(=O)NCc1ccc(Cl)cc1 [Example 58, (E)-N-(4-chlorobenzyl)-2-cyano-3-(1H-pyrrolo[2,3-b]pyridin-3-yl)acrylamide]",100 to 500,1000 to 10000
"C[C@@H](NC(=O)/C(C#N)=C/c1c[nH]c2ncccc12)c1cccc(F)c1 [Example 1, (R,E)-2-cyano-N-(1-(3-fluorophenyl)ethyl)-3-(1H-pyrrolo[2,3-b]pyridin-3-yl)acrylamide]",100 to 500,100 to 500
"COc1ccc([C@@H](C)NC(=O)/C=C/c2c[nH]c3ncc(-c4ccc(F)c(S(C)(=O)=O)c4)cc23)cc1OC [Example 220, (R,E)-N-(1-(3,4-dimethoxyphenyl)ethyl)-3-(5-(4-fluoro-3-(methylsulfonyl)phenyl)-1H-pyrrolo[2,3-b]pyridin-3-yl)acrylamide]",≤ 50,1000 to 10000
"COc1ccc([C@@H](C)NC(=O)/C(C#N)=C/c2c[nH]c3ncc(-c4cnn(C)c4)c(C)c23)cc1OC [Example 99, (R,E)-2-cyano-N-(1-(3,4-dimethoxyphenyl)ethyl)-3-(4-methyl-5-(1-methyl-1H-pyrazol-4-yl)-1H-pyrrolo[2,3-b]pyridin-3-yl)acrylamide]",100 to 500,> 10000
"N#C/C(=C\c1c[nH]c2ncccc12)C(=O)NCc1ccccc1CN1CCCC1=O [Example 44, (E)-2-cyano-N-(2-((2-oxopyrrolidin-1-yl)methyl)benzyl)-3-(1H-pyrrolo[2,3-b]pyridin-3-yl)acrylamide]",1000 to 10000,1000 to 10000
"COc1ccc([C@@H](C)NC(=O)/C(C#N)=C/c2c[nH]c3ncc(OC4CCOC4)cc23)cc1OC (stereo partly drawn) [Example 103, (E)-2-cyano-N-((R)-1-(3,4-dimethoxyphenyl)ethyl)-3-(5-((tetrahydrofuran-3-yl)oxy)-1H-pyrrolo[2,3-b]pyridin-3-yl)acrylamide]",≤ 50,1000 to 10000
"COc1ccc([C@@H](C)NC(=O)/C(C#N)=C/c2c[nH]c3ncc(N4CCOCC4)cc23)cc1OC [Example 84, (R,E)-2-cyano-N-(1-(3,4-dimethoxyphenyl)ethyl)-3-(5-morpholino-1H-pyrrolo[2,3-b]pyridin-3-yl)acrylamide]",≤ 50,1000 to 10000
"COc1ccc([C@@H](C)NC(=O)/C(C#N)=C/c2c[nH]c3ncc(Br)cc23)cc1OC [Example 80, (R,E)-3-(5-bromo-1H-pyrrolo[2,3-b]pyridin-3-yl)-2-cyano-N-(1-(3,4-dimethoxyphenyl)ethyl)acrylamide]",50 to 100,> 10000
"COc1ccc([C@@H](C)NC(=O)/C=C/c2c[nH]c3nccc(-c4cccc(C(N)=O)c4)c23)cc1OC [Example 233, (R,E)-3-(3-(3-((1-(3,4-dimethoxyphenyl)ethyl)amino)-3-oxoprop-1-en-1-yl)-1H-pyrrolo[2,3-b]pyridin-4-yl)benzamide]",50 to 100,1000 to 10000
COc1ccc([C@@H](C)NC(=O)/C(C#N)=C/c2c[nH]c3ncc(-c4ccc(NC(C)=O)cc4)cc23)cc1OC [Example 142],≤ 50,1000 to 10000

# Other lines, results leading:
IC50 [1] [nM],IC50 [2] [nM],Compound
≤ 50,1000 to 10000,"COc1ccc([C@@H](C)NC(=O)/C(C#N)=C/c2c[nH]c3ncc(OC4CCS(=O)(=O)CC4)cc23)cc1OC [Example 105, (R,E)-2-cyano-N-(1-(3,4-dimethoxyphenyl)ethyl)-3-(5-((1,1-dioxidotetrahydro-2H-thiopyran-4-yl)oxy)-1H-pyrrolo[2,3-b]pyridin-3-yl)acrylamide]"
≤ 50,1000 to 10000,COc1ccc([C@@H](C)NC(=O)/C=C/c2c[nH]c3ncc(-c4ccc(NS(C)(=O)=O)cc4)cc23)cc1OC [Example 187]
≤ 50,> 10000,"COc1ccc([C@@H](C)NC(=O)/C=C/c2c[nH]c3ncc(-c4cccc([S+]([O-])C(F)(F)F)c4)cc23)cc1OC (stereo partly drawn) [Example 263, (E)-N-((R)-1-(3,4-dimethoxyphenyl)ethyl)-3-(5-(3-((trifluoromethyl)sulfinyl)phenyl)-1H-pyrrolo[2,3-b]pyridin-3-yl)acrylamide]"
≤ 50,100 to 500,"C[C@@H](NC(=O)/C(C#N)=C/c1c[nH]c2ncc(-c3cnn(C)c3)cc12)c1ccc(F)cc1 [Example 93, (R,E)-2-cyano-N-(1-(4-fluorophenyl)ethyl)-3-(5-(1-methyl-1H-pyrazol-4-yl)-1H-pyrrolo[2,3-b]pyridin-3-yl)acrylamide]"
≤ 50,> 10000,"COc1ccc([C@@H](C)NC(=O)/C=C/c2c[nH]c3ncc(-c4cccc(-c5ncc[nH]5)c4)cc23)cc1OC [Example 199, (R,E)-3-(5-(3-(1H-imidazol-2-yl)phenyl)-1H-pyrrolo[2,3-b]pyridin-3-yl)-N-(1-(3,4-dimethoxyphenyl)ethyl)acrylamide]"
≤ 50,1000 to 10000,"COc1ccc([C@@H](C)NC(=O)/C(C#N)=C/c2c[nH]c3ncc(OCc4nccn4C)cc23)cc1OC [Example 106, (R,E)-2-cyano-N-(1-(3,4-dimethoxyphenyl)ethyl)-3-(5-((1-methyl-1H-imidazol-2-yl)methoxy)-1H-pyrrolo[2,3-b]pyridin-3-yl)acrylamide]"
≤ 50,1000 to 10000,"CC[S+]([O-])c1cccc(-c2cnc3[nH]cc(/C=C/C(=O)N[C@H](C)c4ccc(OC)c(OC)c4)c3c2)c1 (stereo partly drawn) [Example 191, (E)-N-((R)-1-(3,4-dimethoxyphenyl)ethyl)-3-(5-(3-(ethylsulfinyl)phenyl)-1H-pyrrolo[2,3-b]pyridin-3-yl)acrylamide]"
≤ 50,1000 to 10000,COc1ccc([C@@H](C)NC(=O)/C=C/c2c[nH]c3ncc(-c4cccc(CCN(C)C)c4)cc23)cc1OC [Example 192]
≤ 50,1000 to 10000,"COc1ccc([C@@H](C)NC(=O)/C(C#N)=C/c2c[nH]c3nccc(-c4cccc(N5CCN(C)CC5)c4)c23)cc1OC [Example 172, (R,E)-2-cyano-N-(1-(3,4-dimethoxyphenyl)ethyl)-3-(4-(3-(4-methylpiperazin-1-yl)phenyl)-1H-pyrrolo[2,3-b]pyridin-3-yl)acrylamide]"
≤ 50,100 to 500,COc1ccc([C@@H](C)NC(=O)/C=C/c2c[nH]c3ncc(-c4ccc(N5CCN(C(C)=O)CC5)cc4)cc23)cc1OC [Example 182]
